Test results: US20240010654A1, “CRYSTALLINE FORMS OF A TYK2 INHIBITOR” (Ventyx Biosciences, Inc., priority 2022, published 2024)
pIC50: −log10 of the molar value. Several values for one entry are separate records, joined by “and”; a condition that tells them apart may be missing. Equal values may be shown once. Where a name gives a salt, the structure may show the parent alone. Read-outs that look alike come from different tables or passages of the source.

Tests used:
[1] = Pharmacokinetics following oral administration in male cynomolgus monkeys; type: in vivo; conditions: for AUC/Dose: in ng·h/mL per mg/kg; for Cmax: read-out: C0/Cmax
Procedure: The gavage tube was flushed with 5 mL of vehicle after administration of the dose. Plasma samples were collected at the following time points: 15 min, 30 min, 1 hr, 2 hr, 4 hr, 6 hr, 8 hr and 24 hr postdose. The concentrations of Compound 1 were determined in plasma.

[2] = Dynamic Vapor Sorption (DVS); type: physicochemical; conditions: for hygroscopicity of the material (DVS): 25° C.; for Post-DVS analysis by XRPD: after DVS cycle at 25° C.
Procedure: DVS data was collected on a Vsorp Dynamic Moisture Sorption Analyzer (ProUmid GmbH & Co. KG, Germany). The sample was placed into a tared sample chamber and automatically weighed. • Sample temperature: 25° C. • Cycle: Full cycle • Adsorption: 0, 10, 20, 30, 40, 50, 60, 70, 80, 90 • Desorption: 80, 70, 60, 50, 40, 30, 20, 10, 0 • Characterize the sample after the DVS experiment by XRPD
Alternatively, DVS analysis was carried out using a Surface Measurement System DVS Intrinsic analyzer. The instrument was calibrated with standard weights. Approximately 15-20 mg of sample was loaded into a pan for analysis. The sample was analyzed at 25° C. in 10% relative humidity (RH) steps from 50% to 95% RH (adsorption cycle), from 95% to 0% RH (desorption cycle), and from 0% to 50% RH (adsorption cycle). The movement from one step to the next occurred either after satisfying the equilibrium criterion of 0.002% weight change (dm/dt) or, if the equilibrium criterion was not met, after ten hours. Samples after the DVS test were tested by XRPD.

[3] = Competitive slurry experiments of Compound 1 adipate, Forms 1, 2 and 3; type: physicochemical; conditions: from the competitive slurry experiments
Procedure: The resulting solid was collected by filtration and analyzed by XRPD.
A mixed sample of Compound 1 adipate, […] and Compound 1 adipate, Form 2 was suspended in solvents (40 mg, 0.5 mL) and stirred at 50° C. for 1 h. The resulting solid was collected by filtration and analyzed by XRPD.

[4] = Stability test of Compound 1 adipate, Form 1 (HPLC purity and XRPD after storage); type: physicochemical; conditions: for XRPD (crystal form at day 7): after 7 days storage
Procedure: Samples were prepared in duplicate for each condition. At day 7, the samples were analyzed by HPLC and XRPD to check the purity and the crystal form, respectively.

JAK1/TYK2 = experiment: Co-stimulation assay in lysed whole blood: IFNa (JAK1/TYK2) stimulated STAT1 phosphorylation; type: cell-based; conditions: lysed human whole blood, IFNa 100 ng/mL, pSTAT1 by flow cytometry; read-out: IFN-a/Jak1Tyk2 IC50
Procedure: Example 16: Co-Stimulation Assay in Lysed Whole Blood; JAK2: GM-CSF Stimulated STAT5 Phosphorylation and JAK1/TYK2 Stimulated STAT1 Phosphorylation Assay
Dilute RBC lysis buffer to 1× in distilled water. Add 2 mL blood to 38 mL of 1×RBC-lysis buffer. Incubate for 15 mins at RT, in dark. Spin at 300 g, 5 mins, to collect the pellet. Re-lyse if necessary. Re-suspend pellet in 5 mL of cRPMI.
Aliquot 80 μL of lysed human blood in to wells of 96 deep-well plate. Add 10 μL of (10× conc.) of different concentrations of Compound 1 to all wells except controls (unstained and unstimulated) and mix it with the help of 100 uL multichannel. Add 10 uL of RPMI media in controls. For dilution of Compound 1 and dilution range please refer Appendix. Incubate on water bath or CO2 incubator for 1 hour at 37° C. Add 10 μL of (10× conc.) of cytokine mix (GM-CSF and IFNa) (final conc. 10 ng/mL of GM-CSF and 100 ng/mL of IFNa) to each well except unstimulated and unstained controls and incubate further for 20 minutes on water bath at 37° C.
Add 900 μL of prewarmed 1× Fix/Lyse solution (Appendix) and mix it properly using 1000 μl multichannel, incubate further on water bath at 37° C. for 10 minutes (which includes time of addition). Centrifuge at 800×g for 5 minutes at 40° C.; remove 900 uL of supernatant and add 900 μL of 1×PBS. Centrifuge at 800×g for 5 minutes at 40° C., remove 900 μL of supernatant. […]

[5] = male, cynomolgus monkey, plasma, po, 50 mg/kg, PO BID, 50 mg/kg BID

Q: Which results are given for `CNc1cc(Nc2cc(F)cc3c2OCCO3)nc2c(NC(=O)N[C@@H]3C[C@@H]3F)cnn12` [Compound 1 adipate, Form 1, 1-(5-((7-fluoro-2,3-dihydrobenzo[b][1,4]dioxin-5-yl)amino)-7-(methylamino)pyrazolo[1,5-a]pyrimidin-3-yl)-3-((1R,2S)-2-fluorocyclopropyl)urea adipate]?
A: % F (oral bioavailability) ([1]; PO, 5 mg/kg, Form 1, 5 mg/kg): 33.6%; AUClast ([1]; PO, 5 mg/kg, Form 1, 5 mg/kg): 2347 ng·h/mL; C0/Cmax ([1]; PO, 5 mg/kg, Form 1, 5 mg/kg): 672 ng/mL; Tmax ([1]; PO, 5 mg/kg, Form 1, 5 mg/kg): 2.67 h; AUC/Dose ([1]; PO, 5 mg/kg, Form 1, 5 mg/kg): 469; AUC/Dose ([1]; PO, 100 mg/kg): 1083; half-life ([1]; cynomolgus monkey, plasma, PO, 5 mg/kg): 2.66 h; AUC(0-t) ([1]; male, cynomolgus monkey, plasma, po, 100 mg/kg): 108000 ng·h/mL; Cmax ([1]; male, cynomolgus monkey, plasma, po, 100 mg/kg, PO, 100 mg/kg): 9770 ng/mL; Tmax ([1]; male, cynomolgus monkey, plasma, po, 100 mg/kg, PO, 100 mg/kg, read-out: Tmax): 4.67 h; PK compared to Compound 1 free base, Form A ([1]; oral gavage, Table 9): faster Tmax and higher AUC; PK compared to Compound 1 oxalate, Form 1 ([1]; oral gavage, Table 10): faster Tmax, higher AUC, and higher oral bioavailability (% F); hygroscopicity of the material (DVS) [2]: non-hygroscopic; water uptake (DVS) ([2]; 80% RH and 25° C.): less than 0.2%; Post-DVS analysis by XRPD [2]: no change; relative stability among the three Compound 1 adipate forms [3]: most stable form; HPLC purity ([4]; 40° C./75% RH (open) @ 7 d, duplicate, batch from DMSO/EtOAc/EtOH): 99.75 and 99.86; HPLC purity ([4]; 40° C./75% RH (open) @ 7 d, duplicate, batch from DMSO/EtOH/Water): 99.64 and 99.65; HPLC purity ([4]; 40° C./75% RH (open) @ 7 d, duplicate, batch from acetone/water (19/1)): 99.43 and 99.44; physical and chemical stability ([4]; 60° C. (capped) and 40° C./75% RH (open) for 1 week): both physically and chemically stable; HPLC purity ([4]; 60° C./capped @ 7 d, duplicate, batch from DMSO/EtOAc/EtOH): 99.85 and 99.82; HPLC purity ([4]; 60° C./capped @ 7 d, duplicate, batch from DMSO/EtOH/Water): 99.65/99.65; HPLC purity ([4]; 60° C./capped @ 7 d, duplicate, batch from acetone/water (19/1)): 99.44/99.44; HPLC purity ([4]; Day 0, batch from DMSO/EtOAc/EtOH (Example 13Ac)): 99.86; HPLC purity ([4]; Day 0, batch from DMSO/EtOH/Water (Example 13Ad)): 99.66; HPLC purity ([4]; Day 0, batch from acetone/water (19/1) (Example 13Ab)): 99.49; XRPD (crystal form at day 7) ([4]; batch from DMSO/EtOAc/EtOH): Adipate, Form 1; XRPD (crystal form at day 7) ([4]; batch from DMSO/EtOH/Water): Adipate, Form 1; XRPD (crystal form at day 7) ([4]; batch from acetone/water (19/1)): Adipate, Form 1

Q: Which “water uptake (DVS)” value ([2]; 95% RH and 25° C.) does the source give for `CNc1cc(Nc2cc(F)cc3c2OCCO3)nc2c(NC(=O)N[C@@H]3C[C@@H]3F)cnn12` [Compound 1 mesylate, Form 1, 1-(5-((7-fluoro-2,3-dihydrobenzo[b][1,4]dioxin-5-yl)amino)-7-(methylamino)pyrazolo[1,5-a]pyrimidin-3-yl)-3-((1R,2S)-2-fluorocyclopropyl)urea] here?
A: 2.65%

Q: What about the “Post-DVS analysis by XRPD” value [2] of the same molecule?
A: no change

Q: What does the source list for `CNc1cc(Nc2cc(F)cc3c2OCCO3)nc2c(NC(=O)N[C@@H]3C[C@@H]3F)cnn12` [Compound 1 oxalate, Form 1, 1-(5-((7-fluoro-2,3-dihydrobenzo[b][1,4]dioxin-5-yl)amino)-7-(methylamino)pyrazolo[1,5-a]pyrimidin-3-yl)-3-((1R,2S)-2-fluorocyclopropyl)urea]?
A: C0/Cmax ([1]; PO, 5 mg/kg, Form 1, 5 mg/kg): 103 ng/mL; AUC/Dose ([1]; PO, 5 mg/kg, Form 1, 5 mg/kg): 302; AUC(0-t) ([1]; male, cynomolgus monkey, plasma, po, 5 mg/kg): 1510 ng·h/mL; bioavailability ([1]; male, cynomolgus monkey, plasma, po, 5 mg/kg, PO, 5 mg/kg, read-out: % F (oral bioavailability)): 21.6%; Tmax ([1]; male, cynomolgus monkey, plasma, po, 5 mg/kg, PO, 5 mg/kg, read-out: Tmax): 4.67 h; hygroscopicity of the material (DVS) [2]: slightly hygroscopic; water uptake (DVS) ([2]; 80% RH and 25° C.): 0.37%; Post-DVS analysis by XRPD [2]: no change

Q: Which “hygroscopicity of the material (DVS)” value [2] does the source give for `CNc1cc(Nc2cc(F)cc3c2OCCO3)nc2c(NC(=O)N[C@@H]3C[C@@H]3F)cnn12` [Compound 1 phosphate, Form 1, 1-(5-((7-fluoro-2,3-dihydrobenzo[b][1,4]dioxin-5-yl)amino)-7-(methylamino)pyrazolo[1,5-a]pyrimidin-3-yl)-3-((1R,2S)-2-fluorocyclopropyl)urea] here?
A: slightly hygroscopic

Q: What about the “water uptake (DVS)” value ([2]; 80% RH and 25° C.) of the same molecule?
A: 1.20%

Q: And the “Post-DVS analysis by XRPD” value [2]?
A: no change

Q: With `CNc1cc(Nc2cc(F)cc3c2OCCO3)nc2c(NC(=O)N[C@@H]3C[C@@H]3F)cnn12` [Compound 1, 1-(5-((7-fluoro-2,3-dihydrobenzo[b][1,4]dioxin-5-yl)amino)-7-(methylamino)pyrazolo[1,5-a]pyrimidin-3-yl)-3-((1R,2S)-2-fluorocyclopropyl)urea] as the molecule, how does the pIC50 (JAK1/TYK2) read?
A: > 6.00

Q: Which results are given for `CNc1cc(Nc2cc(F)cc3c2OCCO3)nc2c(NC(=O)N[C@@H]3C[C@@H]3F)cnn12` [Compound 1, Form A, 1-(5-((7-fluoro-2,3-dihydrobenzo[b][1,4]dioxin-5-yl)amino)-7-(methylamino)pyrazolo[1,5-a]pyrimidin-3-yl)-3-((1R,2S)-2-fluorocyclopropyl)urea]?
A: AUC/Dose ([1]; PO BID, 50 mg/kg BID): 761; AUC(0-t) [1, 5]: 76100 ng·h/mL; Tmax ([1]; male, cynomolgus monkey, plasma, po, 50 mg/kg, PO BID, 50 mg/kg BID, after second dose, read-out: Tmax): 7 h; Cmax [1, 5]: 5630 ng/mL; water uptake (DVS) ([2]; 95% RH and 25° C.): 5.08%; Post-DVS analysis by XRPD [2]: no change

Q: For `CNc1cc(Nc2cc(F)cc3c2OCCO3)nc2c(NC(=O)N[C@@H]3C[C@@H]3F)cnn12` [Compound 1, Form B, 1-(5-((7-fluoro-2,3-dihydrobenzo[b][1,4]dioxin-5-yl)amino)-7-(methylamino)pyrazolo[1,5-a]pyrimidin-3-yl)-3-((1R,2S)-2-fluorocyclopropyl)urea], which “water uptake (DVS)” value ([2]; 95% RH and 25° C.) is on record?
A: 0.68%

Q: And the “Post-DVS analysis by XRPD” value [2]?
A: no change
